Experimental findings from PMC5824344 (ACS Chemical Biology, 2017) are described below.

The subject of this assay is DENV2 strain 16681 in primary human MDMΦ. As to the kind of experiment: DENV primary MDMΦ antiviral assay (infectious titer by plaque assay). Type of assay: cell-based, dengue virus. As to conditions: Dengue virus, DENV2; dengue-infected MDMΦ, 7 donors; read-out: IC50 for DENV inhibition (infectious virus titer). As to the method:
each well was scored as either positive (≥ 5 stained cells) or negative. TCID50 values were calculated according to the method of Reed and Muench.8
5.7 DENV Primary MDMΦ Antiviral Assay
DENV2 strain 16681 (a gift from Prof. E. Gould, Centre for Ecology and Hydrology, Oxford, United Kingdom) was propagated in the C6/36 cell line. In the antiviral assay, MDMΦ cells (7 donors) were seeded in a 24-well plate at a density of 1× 10^6 cells/well in 1 mL of growth media. The cells were inoculated for 2 h with DENV2 16681 strain at an MOI of 1. […]
The infectious DENV titres in supernatants collected were evaluated by plaque assay as described previously.9 Brieﬂy, LLC-MK2 cells were seeded in conﬂuent monolayers in a 12-well plate. Four 10-fold dilutions of each supernatant to be analyzed were prepared in minimum essential media (MEM, Gibco), supplemented with 100 µg mL−1 streptomycin, 100 U mL−1 penicillin and 10% (v/v) FCS. […]
After 1 d, plaques were observed and counted from the underside of the plate by eye. […]
18 healthy male BALB/c mice (8 – 12 weeks old) weighing between 20 and 35 g were procured from ACTREC, Mumbai, India. […] Temperature and humidity were recorded by an auto-controlled data logging system and maintained at 22± 3◦C and 55± 15% humidity, respectively. […]

Consider `Cc1c(C)c2c(c(C)c1OCCCCCN1CC(O)C(O)C(O)C1CO)CCC(C)(CCCC(C)CCCC(C)CCCC(C)C)O2` (stereo not shown) [Compound 4, 5′-tocopheroxypentyl-DNJ], for which the IC50 (usually the concentration that inhibits the measured activity by half) was 12.7 µM.
